N[C@@H](Cc1ccccc1)C(=O)O
solubility (mole fraction)
Settings | 288.15 K | 293.15 K | 298.15 K | 303.15 K | 308.15 K
in ethanol | 8.9e-05 | 9.96e-05 | 0.000116 | 0.000134 | 0.00016
in methanol | 0.00032 | 0.000416 | 0.000563 | 0.00065 | 0.000743
in water | 0.00219 | 0.00247 | 0.00277 | 0.00312 | 0.00348

From BigSolDB 2.1
